Source: patent US5342612A, “Compositions for the treatment of mammalian diseases” (priority 1991, dated 1994)

Columns and labels:
S. aureus [1] = experiment: Potentiation of bacteriostatic activity of lysostaphin by vehicles (checkered analysis); format: cell-based, Staphylococcus aureus; details: for Vehicle Conc. w/Max. Potentiation (%): with r-lysostaphin; for Potentiation Index Compared to Lysostaphin: M.I.C. of r-lysostaphin in saline / M.I.C. in formulation with the vehicle; for Character of potentiation: in words (footnotes, text)
Excerpt: In order to identify the nontoxic formulations for mammalian use, toxicity is employed as a method to eliminate direct bactericidal effects on the S. aureus, as well as potential toxic effects on the target animal. Compounds are formulated with r-lysostaphin at concentrations below toxic effects and compared to the bacteriostatic activity of r-lysostaphin in a saline formulation. Some compounds potentiate r-lysostaphin bacteriostatic activity by as much as 300-1000 fold.
Several surfactants, detergents, oils, emollients and membrane solubilizers are chosen as representative of various classes of compounds which may affect protein activity. These vehicles are then evaluated for toxicity and potentiation of the bacteriostatic effects of r-lysostaphin on S. aureus according to the methods described in the foregoing examples. […] Secondly, the vehicles are subjected to the toxicity test on murine cells in vitro. Viable cells are evaluated by trypan blue exclusion and normalized to an untreated control. Thereafter, dairy cattle are infused through the teat canal with various concentrations of the vehicle to make a determination of the irritation potential after intramammary infusion as a measure of mammalian toxicity. Milk samples are collected after infusion of said vehicles and the somatic cell count is determined. The Stimulation Index equals the post-infusion SCC divided by the pre-infusion SCC. The vehicles showing minimal toxicity to S. aureus and mammalian cells in vitro and in vivo are subsequent candidates for evaluation in the in vivo potentiation trials.
Various vehicle combinations are tested in a standard checkered analysis which simultaneously varies the concentration of both parameters to examine the individual contribution of each. Vehicles are all compared to r-lysostaphin in a saline solution, i.e., the potentiation index. […] Glycerol and triacetin, while only potentiating the activity of r-lysostaphin 6-8 fold, is manifested by bactericidal effects (see above Table IV).

[2] = tested on: S. aureus mastitis (Newbould 305); experiment: r-BoIL-2 formulated in poloxamer 407 NF as a therapeutic for S. aureus mastitis (Example 6); format: in vivo, Holstein-Fresian dairy cattle
Protocol: This experiment compares r-BoIL-2 formulated in poloxamer 407 NF, against CEFA-LAK® (cephapirin in a commercial formulation), Na cephapirin (in PBS) and r-BoIL-2 in combination with Na cephapirin (in PBS) as potential therapeutics for S. aureus mastitis. The study employs the following materials: recombinant bovine interleukin-2 (r-BOIL-2, Immunex Corporation, Seattle, Wash.); CEFA-LAK® (200 mg cephapirin as cephapirin sodium in a commercially packaged dose, Bristol-Meyers, Evansville, Ind.); 200 mg Na cephapirin dissolved in 10.0 mL sterile saline; PLURONIC® ACID F127 (poloxamer 407 NF, BASF Corporation, Parsippany, N.J.).
The treatment of Holstein-Fresian dairy cattle is run over three days. There are four treatment groups as follows:
Treatment 1=2 infusions consisting of 200 mg cephapirin (as CEFA-LAK®),at 0 and 12 hours.
Treatment 2=3 infusions consisting of 10 mg r-BoIL-2/poloxamer 407 NF at 0, 24 and 48 hours.
Treatment 3=3 infusions consisting of 3.3 mg r-BoIL-2 in 10 mL PBS at 0, 24 and 48 hours, followed by 2 infusions of 200 mg Na cephapirin in 10 mL PBS at 0 and 12 hours.
Treatment 4=2 infusions consisting of 200 mg Na cephapirin in 10 mL PBS at 0 and 12 hours.
All mammary glands to be infused have been infected with S. aureus (Newbould 305). Infusions are made into the teat cistern of a milked out mammary gland after the prescribed milking. […]

S. aureus [3] = experiment: Potentiation of lysostaphin bactericidal activity (minimum bactericidal concentration assay, survival of S. aureus); format: cell-based, Staphylococcus aureus; details: 18 h
Protocol: Preparation of 50% glycerol and 15% poloxamer 407 NF plus lysostaphin is as follows: The lysostaphin stock of 2.5 mg/mL is thawed and filtered through a 0.22μ filter. [formula]
In a similar fashion, triacetin solutions are also prepared.
Mueller-Hinton Broth containing lysostaphin is prepared as above. Penicillin in Mueller-Hinton Broth is prepared to serve as a control. Starting with a frozen 2.5 mg/mL stock solution the penicillin is diluted as follows: 400 μl of 2.5 mg/mL is placed in 600 μl of Mueller-Hinton Broth to yield a 1000 μg/mL solution. Added to 3744 μl of Mueller-Hinton Broth is 256 μl of the 1000 μg/mL solution to yield a 64 μg/mL solution.
Placed in sterile tubes are 2 mL of the vehicle and lysostaphin; Mueller-Hinton Broth plus lysostaphin; and Mueller-Hinton Broth plus penicillin. Serial two-fold dilutions are performed by hand using 1 mL of the appropriate vehicle as the diluent. Lysostaphin and penicillin dilutions range from 64 μg/mL to 0.25 μg/mL. All combinations are done in duplicate. The Staphylococcus aureus is grown for 5 hours in 5 mL of TSB and 0.1 mL is removed and placed in 9.9 mL of saline. Each tube is inoculated with 100 μl of the diluted culture. Plate counts are performed on the inoculum. All tubes are incubated for 18 hours at 37° C. with constant agitation. Following incubation, each dilution of lysostaphin in the vehicles or Mueller-Hinton Broth and penicillin in Mueller-Hinton Broth is diluted in phosphate buffered saline to 10^-2, 10^-4 and 10^-6.
Plated on a TSA with 10% sheep blood is 100 μl of the undilute and of each dilution. The plates are inverted and incubated for 18 hours. Following incubation, the number of colonies on each plate is counted.
The vehicles which inhibit the growth or are moderately bactericidal to S. aureus by themselves are unable to be evaluated using the MIC procedure. For these vehicles a minimum bactericidal concentration assay (MBC) is performed. This assay in conjunction with the previous MIC data distinguish bacteriostatic effects versus bactericidal effects of the vehicles. Various formulations are mixed with lysostaphin at a final concentration of 32 μg/mL. Ten, serial two- or four-fold dilutions of the lysostaphin are performed in the vehicle and each tube inoculated with a 2-6 x's 106 S. aureus CFU's (bacterial colony-forming units). Samples are removed after 18 hours and plated on blood agar plates.

[4] = tested on: Staphylococcus aureus mastitis (Newbould 305); experiment: Efficacy of lysostaphin formulated in vehicles as intramammary infusion against Staphylococcus aureus mastitis; format: in vivo, bovine (dairy cows)
Excerpt: This experiment examines the ability of various lysostaphin formulations to eliminate S. aureus infections in the bovine mammary gland and compares the formulations with the testing of lysostaphin in a peanut oil-gel matrix, similar to that used in the commercial product CEFA-LAK®, which is used to treat mastitis in lactating dairy cows.
Lysostaphin is formulated in three vehicles: 15% w/v poloxamer 407 NF, 50% w/v glycerol or 10% w/v triacetin. Lysostaphin is also formulated in a peanut oil-gel matrix. These formulations are infused into the bovine mammary gland and the ability of these combinations to exact a biological response, either by curing the infection or by clearing the mammary gland temporarily of S. aureus, are assessed.
Recombinant lysostaphin is suspended in 10.0 mL of peanut oil vehicle or dissolved in 60.0 mL of appropriate sterile vehicle (sPBS) at a concentration of 10.0 mg/mL or 1.67 mg/mL, respectively. Each of 15% poloxamer 407 NF (PLURONIC® ACID F127, a polyoxyethylene-polyoxypropylene derivative, BASF Corporation, Parsippany, N.J.); 50% glycerol (Sigma Chemical Co., St. Louis, Mo.); and 10% triacetin (glyceryl triacetate, Sigma Chemical Co., St. Louis, Mo.) are prepared in sterile phosphate buffered saline.
Staphylococcus aureus infections of the mammary gland provide an excellent model system for evaluating therapeutic efficacy of a variety of pharmaceutical and biological agents for many infectious diseases of mammals. Therefore, experimental infections are established with S. aureus (strain Newbould 305). All mammary glands to be inoculated are free of pathogens and have individual quarter somatic cell counts (SCC) less than 200,000 cells/mL of milk. Inoculum is prepared from a four-hour culture grown in trypticase soy broth and diluted. Inoculations are made by infusion of 1.0 mL diluted culture containing 90 colony forming units of S. aureus (Newbould 305) into the teat cistern of a milked-out mammary quarter. Quarters which fail to establish an infection after six days from initial inoculation are reinfected.
Prepared in PBS is 50% glycerol and the solution is then sterile filtered (0.45μ). Poloxamer 407 NF is mixed overnight and prepared similarly. A 10% triacetin solution is prepared aseptically in sterile PBS. Appropriate amounts of lysostaphin is added so the final concentration is 1.67 mg/mL. All preparations are in a total volume of 60.0 mL and made the day of the infusion. All solutions are sterile filtered through a 0.45μ filter.
Duration of treatment: 3 consecutive PM milkings
Quarters are randomly assigned to one of six treatment groups. All quarters are infused with the appropriate vehicle (60.0 mL) with or without lysostaphin over three consecutive PM milkings. […]

[5] = Toxicosis following r-BoIL-2 and r-BoIL-1 formulated infusions; format: in vivo, dairy cattle; details: in words
Excerpt: Daily observations of dairy cattle are made for any signs of toxicosis following the beginning of treatment.

[6] = lysostaphin (or penicillin) 1 μg/mL
[7] = lysostaphin (or penicillin) 4 μg/mL

Molecule: CC(O)CO (stereo not drawn) [Propylene Glycol]
- Vehicle Conc. w/Max. Potentiation (%) (S. aureus [1]): 0.195%

Molecule: CCCCCCCCCCCCO[C@@H]1O[C@H](CO)[C@@H](O[C@H]2O[C@H](CO)[C@@H](O)[C@H](O)[C@H]2O)[C@H](O)[C@H]1O [Dodecyl B-D-maltosid]
- Vehicle Conc. w/Max. Potentiation (%) (S. aureus [1]): 0.0024%

Molecule: CCCCCCCCOC1O[C@H](CO)[C@@H](O)[C@H](O)[C@H]1O (stereo partly drawn) [n-Octylglucosid]
- Potentiation Index Compared to Lysostaphin (S. aureus [1]): 1.0
- Vehicle Conc. w/Max. Potentiation (%) (S. aureus [1]): 0.039%

Molecule: CC(=O)OCC1=C(C(=O)O)N2C(=O)[C@@H](NC(=O)CSc3ccncc3)[C@H]2SC1 [Cephapirin]
- Response (%) ([2]; CEFA-LAK 200 mg x2, r-BoIL-2/F127 10 mg x3, r-BoIL-2 3.3 mg x3 + cephapirin 200 mg x2, cephapirin 200 mg x2, quarters culture negative at first sampling): 85%
- Cure (%) ([2]; same doses, days eight to fifteen following final treatment): 23.1%

Molecule: CCCCCCCCCC(=O)N(C)C[C@H](O)[C@@H](O)[C@H](O)[C@H](O)CO [Decanoyl-n-methylglucamid]
- Vehicle Conc. w/Max. Potentiation (%) (S. aureus [1]): 0.078%

Molecule: CCCCCCCC(=O)N(C)C[C@H](O)[C@@H](O)[C@H](O)[C@H](O)CO [Octanoyl-n-methylglucamid]
- Vehicle Conc. w/Max. Potentiation (%) (S. aureus [1]): 0.31%

Molecule: CC1(C)S[C@@H]2[C@H](NC(=O)Cc3ccccc3)C(=O)N2[C@H]1C(=O)O [Penicillin, reference compound]
- Survival of S. aureus CFU (Log 10) in Vehicles (S. aureus [3]; lysostaphin (or penicillin) 0.5 μg/mL): 4.2 CFU (Log 10)
- Killing of S. aureus (footnote class) (S. aureus [3]; [6]): ^3 (Greater than 99.99% killing of S. aureus)
- Survival of S. aureus CFU (Log 10) in Vehicles (S. aureus [3]; [6]): 2.5 CFU (Log 10)
- Killing of S. aureus (footnote class) (S. aureus [3]; [7]): ^3 (Greater than 99.99% killing of S. aureus)
- Survival of S. aureus CFU (Log 10) in Vehicles (S. aureus [3]; [7]): 3.1 CFU (Log 10)
- Survival of S. aureus CFU (Log 10) in Vehicles (S. aureus [3]; lysostaphin (or penicillin) 8 μg/mL): 0 CFU (Log 10)
- Killing of S. aureus (footnote class) (S. aureus [3]; penicillin 0.5 μg/mL): ^3 (Greater than 99.99% killing of S. aureus)

Molecule: OCC(O)CO [Glycerol]
- Character of potentiation (S. aureus [1]): Potentiates the bactericidal activity of rlysostaphin
- Vehicle Conc. w/Max. Potentiation (%) (S. aureus [1]): 50.0%
- % Cures ([4]; 100 mg lysostaphin infusions on three consecutive days): 25%
- Effect on potentiating the in vivo efficacy of lysostaphin ([4]; in words): Neither glycerol nor triacetin (both have a cure rate of 25%) has any significant effect

Molecule: CCCCCCCCCCCCOC1O[C@H](CO)[C@@H](O)[C@H](O)[C@H]1O (stereo partly drawn) [n-Dodecylglucosid]
- Potentiation Index Compared to Lysostaphin (S. aureus [1]): 1025.0
- Character of potentiation (S. aureus [1]): Potentiation is eliminated when diluted fourfold
- Vehicle Conc. w/Max. Potentiation (%) (S. aureus [1]): 0.078%

B1: r-BoIL-2: recombinant bovine interleukin-2, Immunex Corporation, Seattle, Wash. (protein, UniProt P05016 21-155, looked up)
Interleukin-2: APTSSSTGNTMKEVKSLLLDLQLLLEKVKNPENLKLSRMHTFDFYVPKVNATELKHLKCLLEELKLLEEVLNLAPSKNLNPREIKDSMDNIKRIVLELQGSETRFTCEYDDATVNAVEFLNKWITFCQSIYSTMT
- Observable signs of toxicosis / adverse clinical signs ([5]; compared with PBS carrier): A decrease of adverse clinical signs are observed
- Side effects compared with r-BoIL-2 in PBS ([5]; in polyoxypropylene-polyoxyethylene block copolymer): substantially less detrimental to an animal than infusions of r-BoIL-2 in sterile phosphate buffered saline
